Source: patent US12295919B2, “Methods of treatment and prevention using 4-deoxy-L-erythro-5-hexoseulose uronic acid” (MIE UNIVERSITY, priority 2022, dated 2025)

Legend:
[1] = tested on: blood-brain barrier in vitro reconstitution system model (MBT-24H); test: BBB permeability using cynomolgus monkey-type BBB kit (MBT-24H); assay type: in vitro ADME
Procedure: The permeability of DEH was evaluated using a commercially available BBB kit (blood-brain barrier in vitro reconstitution system model (MBT-24H: PharmaCo-Cell Company, Ltd.)). The kit uses cynomolgus monkey-derived cells as endothelial cells. The permeability of DEH was evaluated using this model.
The reconstituted cynomolgus monkey BBB model has a structure closer to that of human BBB as compared to that of the kit in <Test 2>, so it was considered to be a better model for evaluating whether DEH permeates the human BBB.
After the test, the DEH concentration on the brain parenchyma side was obtained, and the DEH permeability was calculated.

Caco-2 cell monolayer = test: Membrane permeability using Caco-2 cell monolayer; assay type: in vitro ADME, human
Procedure: When Caco-2 cells (human colon cancer-derived cell line) are cultured in a monolayer on a porous membrane filter, they differentiate into intestinal epithelium-like cells. Owing to the differentiation, they express brush borders and tight junctions similar to columnar epithelial cells of the small intestine, as well as metabolic enzymes and transporters present in the human small intestine. Therefore, the Caco-2 cell monolayer is widely used as a model to predict absorption from the intestinal tract.
Using the Caco-2 cell monolayer, the membrane permeability of DEH was confirmed.
Next, using the model apparatuses shown in FIGS. 2A-2B, the electrical resistance value (transepithelial electrical resistance (TEER) value) using an electrical resistance system (voltohmmeter) sold under the trademark MILLICELL™ ESR-2 (FIG. 2A) and permeability using Lucifer Yellow (FIG. 2B) were measured to confirm that a single layer film was formed. The single layer films, in which the TEER value was more than 300 Ω·cm2 and the permeability of Lucifer yellow was 0.3% to 2%, were used in the test.
Permeability (absorption) of substances, which were added to the apical (AP: apical, luminal) side, to the basolateral (BL) side, or permeability (excretion) of substances, which were added to the BL side, to the AP side was evaluated.
An ER value of less than 2 means absorption from the intestinal tract, and an ER value of 2 or more means excretion from the intestinal tract.

C. elegans strain HA759 = test: Inhibitory effect on neuronal death in PolyQ disease model; assay type: in vivo; conditions: 120 hours after start of culturing
From the text: The effect of DEH on neuronal death of the C. elegans strain HA759, which is a PolyQ disease model, was also investigated. HA759 strain (rtIs11 [osm-10p:: GFP+osm−10p: HtnQ150+dpy−20 (+)]) is a C. elegans strain which expresses Htn-Q150 (human huntingtin) and the fluorescent protein GFP downstream of the osm-10 gene when it receives a signal from ASH neurons. In accordance with the duration of the culture time, HA759 causes death of ASH neurons due to progressive neurodegeneration owing to accumulation of PolyQ.
Age-synchronized HA759 strain was cultured using mNGM medium. Control (DEH−), 25 mM DEH and 50 mM DEH were used as evaluation groups (samples). E. coli OP50-1 was used as nematode food.
Ten nematodes each were observed under a microscope immediately after the start of culture of the HA759 strain and after 24, 48, 72, and 120 hours to confirm whether nerve cells were alive or dead (n=30).
Each data is shown as mean±standard error. […] Thus, DEH inhibited, in a dose-dependent manner, PolyQ-induced neuronal death in the HA759 strain. Because DEH suppresses (reduces) PolyQ aggregation and neuronal cell death, DEH can treat and/or prevent symptoms of PolyQ disease, such as involuntary movement and dementia.

DAF-16 = test: Expression and activation (nuclear localization) of DAF-16; assay type: in vivo, C. elegans; conditions: 72 hours at 20° C.; for nuclear localization rate of DAF-16: TJ356 strain (Control 2.2%); for intermediate localization rate of DAF-16: TJ356 strain (Control 24.4%)
From the text: The FOXO gene daf-16 is one of the components of the insulin/IGF-1 signaling pathway that controls many biological processes such as lifespan, metabolism, and stress response. When DAF-16 is localized in the nucleus, it activates the transcription of numerous genes involved in the regulation of stress tolerance promotion and pathogen protection. Therefore, the involvement of DEH in the activation of daf-16 was examined using the C. elegans TJ356 strain.
The TJ356 strain (zls356 [daf-16p::daf-16a/b::GFP+rol-6 (su1006)]) is a nematode, in which a fluorescent protein GFP has been inserted into the daf-16 promoter, and nuclear translocation by daf-16 gene activation can be observed by fluorescence of the GFP.
Age-synchronized TJ356 strain was cultured using mNGM medium at 20° C. for 72 hours. As evaluation groups (samples), positive control (group heat-treated at 37° C. for 30 minutes after 72-hour culture), control (DEH−), 25 mM DEH and 50 mM DEH were used. E. coli OP50-1 was used as nematode food.
After culturing the TJ356 strain, 15 nematodes in each group were observed under a microscope to confirm the presence or absence of nuclear localization of the DAF-16 protein (GFP fluorescence) (n=60).
Each data is shown as mean±standard error. […] Thus, DEH increased the nuclear localization ratio of DAF-16 as compared to the Control.

[2] = tested on: human iPS cell-derived intestinal epithelial cells; test: Membrane permeability using human iPS cell-derived intestinal epithelial monolayer; assay type: in vitro ADME
Procedure: The permeability of DEH through membrane was confirmed using human iPS cells. […] Therefore, results closer to the human body can be obtained using iPS cell-derived intestinal epithelial cells as compared to those using the Caco-2 cell model test.
Using a CO2 incubator (37° C., 5% CO2), human iPS cell-derived intestinal epithelial cells were cultured for 13 to 20 days to prepare a monolayer.
The membrane permeability of the human iPS cell-derived intestinal epithelial monolayer membrane was evaluated by the method described above in <Test 1> using an electrical resistance system (voltohmmeter) sold under the trademark MILLICELL™ ESR-2. Monolayer films, in which the TEER value was more […], were used in the test.
Permeability (absorption) of substances, which were added to the AP side, to the BL side, or permeability (excretion) of substances, which were added to the BL side, to the AP side was evaluated. The above-mentioned SIM measurement of LC/MS was used in the detection and quantification of DEH.

[3] = tested on: blood-brain barrier in vitro reconstitution system model (RBT-24H); test: BBB permeability using rat-type BBB kit (RBT-24H); assay type: in vitro ADME, Wistar rat
Procedure: Next, DEH permeability was evaluated using a commercially available BBB kit (blood-brain barrier in vitro reconstitution system model (RBT-24H: PharmaCo-Cell Company Ltd.)). This kit uses endothelial cells, pericytes and astrocytes of Wistar rat origin. The above-mentioned SIM measurement of LC/MS was used in the detection and quantification of DEH. A 1000 μg/mL DEH solution was added to the blood vessel side, and after 30 minutes, culture medium on the brain parenchyma side was collected. Then, the DEH concentration in the collected culture medium was measured.
A summary of data, which examined permeability subgroups that migrate into the brain for various compounds, are shown in Table 3.

PC-12 cells = test: Neurite outgrowth activity using PC-12 cells; assay type: cell-based, rat
Procedure: Next, the characteristics of DEH were investigated using PC-12 cells. PC-12 cells are cells that were isolated from rat adrenal medullary pheochromocytoma and established as a strain. Nerve growth factor (NGF) is not needed for survival of PC-12 cells, but proliferation is arrested, nerve fibers elongate, and sympathetic ganglion neuron-like properties develop by using NGF. Owing to these properties, PC-12 cells have been used as a model for neural differentiation.
PC-12 cells were cultured and divided into 8 subgroups: no addition (Control), DEH addition (10, 50, 100 μM), NGF addition, NGF addition+DEH addition (10, 50, 100 μM), and elongation of neurite formation was observed. ImageJ software was used to measure neurite length. FIGS. 5A-5C show photographs of cells observed under a microscope; in FIG. 6 the neurite length (μm) of each subgroup is shown. Each data is shown as mean±standard error of triplicate tests. Statistical analysis was performed using the t-test, and a significance level of less than 5% (p<0.05) was considered significant.
NGF addition+DEH addition (50, 60, 70, 80, 90, 100 μM) was divided into 6 subgroups, and the elongation and number of neurites were observed and are shown in FIGS. 7 and 8. Each data is shown as mean±standard error of triplicate tests.

[4] = cynomolgus monkey BBB kit, mean ± s.e.
[5] = human iPS cell-derived intestinal epithelial monolayer, mean ± s.e.

Compound: O=C[C@@H](O)[C@@H](O)CC(=O)C(=O)O [DEH, 4-deoxy-L-erythro-5-hexoseulose uronic acid]
- Efflux ratio (ER) (B-A/A-B) ([1]; cynomolgus monkey BBB kit): 0.766
- Papp Blood side (A) to Brain side (B) [1, 4]: 2.88 ± 0.24 ×10^−6 cm/s
- Papp Brain side (B) to Blood side (A) [1, 4]: 2.20 ± 0.55 ×10^−6 cm/s
- Permeability category ([1]; monkey BBB kit, Papp compared with Table 3): low (2~10)
- Absorption category (Caco-2 cell monolayer; Caco-2 Papp compared with Table 2): moderate
- Papp AP to BL (Caco-2 cell monolayer; Caco-2 monolayer, absorption direction, mean ± s.e.): 5.13 ± 0.22 ×10^−6 cm/s
- Papp BL to AP (Caco-2 cell monolayer; Caco-2 monolayer, excretion direction, mean ± s.e.): 2.78 ± 0.12 ×10^−6 cm/s
- ER (B→A/A→B) (Caco-2 cell monolayer; Caco-2 monolayer, ER less than 2 means absorption from the intestinal tract): 0.542
- neuronal death suppressed (decreased) as compared to the Control (C. elegans strain HA759; 25 mM DEH): 20.3%
- neuronal death suppressed (decreased) as compared to the Control (C. elegans strain HA759; 50 mM DEH): 46.4%
- nuclear localization rate of DAF-16 (DAF-16; 25 mM DEH): 40.0%
- intermediate localization rate of DAF-16 (DAF-16; 25 mM DEH): 35.6%
- nuclear localization rate of DAF-16 (DAF-16; 50 mM DEH): 51.1%
- intermediate localization rate of DAF-16 (DAF-16; 50 mM DEH): 31.1%
- Efflux ratio (ER) (B-A/A-B) ([2]; human iPS cell-derived intestinal epithelial monolayer): 0.907
- Papp AP to BL [2, 5]: 8.78 ± 1.49 ×10^−6 cm/s
- Papp BL to AP [2, 5]: 7.97 ± 1.26 ×10^−6 cm/s
- Absorption category ([2]; iPS-derived monolayer Papp compared with Table 2): moderate
- Papp (DEH permeability, blood vessel side to brain parenchyma side) ([3]; 1000 μg/mL DEH, 30 minutes): 14.62±6.86 ×10^−6 cm/s
- Permeability category ([3]; Papp compared with Table 3): good (10~20)
- neurite outgrowth, DEH alone (PC-12 cells; DEH 10, 50, 100 μM without NGF): did not induce neurite outgrowth
- optimum concentration (maximum neurite elongation and number) (PC-12 cells; NGF + DEH 50-100 μM): 70 µM
- promotion of the function of NGF (neurite length) (PC-12 cells; NGF addition + DEH addition, p<0.05 vs NGF): significantly (p<0.05) promote the function of NGF
